# Experimental data as given in article PMC7672604, “Design, Synthesis, Molecular Docking, Antiapoptotic and Caspase-3 Inhibition of New 1,2,3-Triazole/Bis-2(1H)-Quinolinone Hybrids” (Molecules, 2020).
# “And” between values parts separate entries of the source, which are not always exact repeats. Equal values may be shown once.
# Legend:
# Format in all cases: in vivo
# [1] = tested on: testis of I/R rats; experiment: Testicular MDA in testis of I/R rats; details: i.p. 1 h before ischemia, dose equivalent to 30 mg NAC, mean ± S.E.M, n=6
# Procedure: (§1) This section describes the methods used in the investigation of the antiapoptotic effect of the novel compounds 6a–g then supported by further histological and molecular docking studies. The antiapoptotic effect of 6a–g was evaluated through evaluation of decreasing tissue damage induced by I/R in the testis of rats in a dose equivalent to 30 mg N-acetylcysteine (NAC) as an antiapoptotic reference. The rats were subdivided into sham, I/R, NAC and treated with tested compounds groups, each group comprises of 6 rats (weighing 140–150 g). The targeted compounds 6a–g were administrated intra-peritoneal (i.p.) an hour before ischemia, which lasted for (0.5 h) then reperfusion (1 h) followed by cutting the organ (Figure 5). Different biomarkers concentrations were measured in serum to detect testis injury due to ischemia/reperfusion (I/R).
# (§2) During the long testicular torsion, oxidation damage affects the testis by the production of the reactive oxygen species (ROS). Excessive generation of the ROS interacts with lipids, proteins, and nucleic acids, which has an adverse effect on cell function and damage. The testis has high cell metabolism such that excessive ROS production weakens antioxidant capacity. Malondialdehyde (MDA) is the end product of lipid peroxidation and increased MDA level has an adverse effect on sperm fertility. Furthermore, total antioxidant capacity (TAC) is the measure of the number of free radicals scavenged by a test solution, being used to evaluate the antioxidant capacity of biological samples [55]. The data collected in Table S3 (Supplementary Materials) have identified that there was a significant increase in testicular MDA with a significant decrease in testicular TAC in the I/R group as well as compounds 6d and 6f when compared to sham control and NAC groups. These findings indicate that both 6d and 6f are the worst antiapoptotic compounds compound amongst all the synthesized compounds.
# TAC was assessed by the colorimetric technique using commercial kits (El-Minia, Egypt) (See Supplementary Materials). Testicular MDA, an index of lipid peroxidation, was determined by using 1,1,3,3-tetramethoxypropane as standard (See Supplementary Materials).
# [2] = tested on: caspase-3; experiment: Caspase-3 level in serum of testicular I/R rats (ELISA); details: mean ± S.E.M, n=6
# Procedure: as §1
# […], implicating a potential role in drug screening efforts. Therefore, we studied the mechanism of the caspase-3 inhibition activity. Caspase-3 was assayed in the serum of rats treated with 6a–g in comparison with sham and the NAC treated group, as shown in Table S5 (Supplementary Materials).
# (§3) TNF-α was measured by ELISA kit (Elabscience, Houston, TX, USA). Caspase-3 was measured by ELISA kit Cusabio, Houston, TX, USA (See Supplementary Materials). Testosterone concentration in testicular samples was determined by the ELISA kit (“DRG”, Marburg, Germany) (See Supplementary Materials).
# [3] = tested on: testis of I/R rats; experiment: Testicular TAC in testis of I/R rats; details: i.p. 1 h before ischemia, dose equivalent to 30 mg NAC, mean ± S.E.M, n=6
# Procedure: as §1, §2
# TAC was assessed by the colorimetric technique using commercial kits (El-Minia, Egypt) (See Supplementary Materials). Testicular MDA, an index of lipid peroxidation, was determined by using 1,1,3,3-tetramethoxypropane as standard (See Supplementary Materials). […]
# 1.3.Determination of Total Antioxidant Capacity (Testicular tissue)
# Free radicals or reactive oxygen species (ROS) are produced during biochemical redox reactions as part
# of normal physiological cell metabolism (protection from infectious organisms) and as a response to
# environmental factors such as UV light, cigarette smoke, environmental pollutants, and g-radiation. Once
# formed, ROS attack cellular components causing damage to lipids, proteins, and DNA which can initiate
# Antioxidants in the sample reduce dark blue-green colored ABTS radical to colorless reduced ABTS
# form. The change of absorbance at 660 nm is related with total antioxidant level of the sample. The assay
# is calibrated with a stable antioxidant standard solution which is traditionally named as Trolox
# Equivalent that is a vitamin E analog.
# The determination of the antioxidative capacity is performed by the reaction of antioxidants in the
# sample with a defined amount of exogenously provide hydrogen peroxide (H2O2) The antioxidants in the
# sample eliminate a certain amount of the provided hydrogen peroxide. The residual H2O2 is determined
# (1 picture or pasted object on this page, not shown here)
# colorimetrically by an enzymatic reaction which involves the conversion of 3,5,dichloro–2–hydroxy
# benzensulphonate to a colored product.
# * Dilute R11000 times immediately before use (10 μl R1 + 10 ml d. Water mix Discard after use.
# *Working Reagent: mix equal volumes of R2 and R3 immediately before use.
# *Dilute sample if necessary
# Total Antioxidant concentration […]
# [4] = tested on: testis of I/R rats; experiment: TNFα in testis of I/R rats (ELISA); details: i.p. 1 h before ischemia, dose equivalent to 30 mg NAC, mean ± S.E.M, n=6
# Procedure: as §1
# It was reported that excessive apoptosis in the testis could damage the Leydig cells and apparent decline in serum testosterone levels. Furthermore, excessive apoptosis of Leydig cells results in decreased testosterone. The assays of the apoptotic biomarkers (testicular testosterone and TNFα) were done in comparison with the sham and NAC treated group and the results were outlined in Table S4 (Supplementary Materials).
# as §3
Compound,Testicular MDA [1],Caspase-3 level [2],Testicular TAC [3],TNF-α [4]
"COc1ccc2[nH]c(=O)cc(OCc3cn(-c4cc(=O)[nH]c5ccccc45)nn3)c2c1 [6g, 6-Methoxy-4-((1-(2-oxo-1,2-dihydroquinolin-4-yl)-1H-1,2,3-triazol-4-yl)methoxy)quinolin-2-(1H)-one]",89.59±5.58 nmol/g tissue,6.99 ± 0.24 ng/mL,3.34±0.21 mmol/g tissue,192.00 ± 6.31 pg/mL
"CC(=O)N[C@@H](CS)C(=O)O [NAC, N-acetylcysteine, reference compound]",67.58 nmol/g tissue and 67.58±3.76 nmol/g tissue,2.54 ± 0.22 ng/mL,4.45 mmol/g tissue and 4.45±0.40 mmol/g tissue,93.39 ± 4.59 pg/mL
"Cc1ccc2[nH]c(=O)cc(OCc3cn(-c4cc(=O)[nH]c5ccccc45)nn3)c2c1 [6e, 6-Methyl-4-((1-(2-oxo-1,2-dihydroquinolin-4-yl)-1H-1,2,3-triazol-4-yl)methoxy)quinolin-2(1H)-one]",85.00±6.46 nmol/g tissue,7.86 ± 0.28 ng/mL,3.34±0.25 mmol/g tissue,188.90 ± 6.82 pg/mL
"COc1ccc2[nH]c(=O)cc(-n3cc(COc4cc(=O)[nH]c5ccccc45)nn3)c2c1 [6c, 6-Methoxy-4-(4-(((2-oxo-1,2-dihydroquinolin-4-yl)oxy)methyl)-1H-1,2,3-triazol-1-yl)-quinolin-2(1H)-one]",64.93±4.50 nmol/g tissue,2.39 ± 0.23 ng/mL,4.78±0.39 mmol/g tissue,106.70 ± 4.75 pg/mL
"Cn1c(=O)cc(-n2cc(COc3cc(=O)[nH]c4ccccc34)nn2)c2ccccc21 [6d, 1-Methyl-4-(4-(((2-oxo-1,2-dihydroquinolin-4-yl)oxy)methyl)-1H-1,2,3-triazol-1-yl)quinolin-2(1H)-one]",117.50 ± 3.71 nmol/g tissue,15.28 ± 1.51 ng/mL,1.89±0.29 mmol/g tissue,234.50 ± 6.15 pg/mL
"Cc1ccc2[nH]c(=O)cc(OCc3cn(-c4cc(=O)[nH]c5ccc(C)cc45)nn3)c2c1 [6f, 6-Methyl-4-((1-(6-methyl-2-oxo-1,2-dihydroquinolin-4-yl)-1H-1,2,3-triazol-4-yl)meth-oxy)quinolin-2(1H)-one]",117.00±3.46 nmol/g tissue,16.34 ± 1.49 ng/mL,1.73±0.25 mmol/g tissue,237.90 ± 4.52 pg/mL
